Paper PMC7822874, “Chemoprotective antimalarials identified through quantitative high-throughput screening of Plasmodium blood and liver stage parasites” (Scientific Reports, 2021)
Several values for one entry are separate records, joined by “and”; a condition that tells them apart may be missing. Equal entries are not always repeated. Where two headings read alike, the source gives them in different places.

Legend:
[1] = test system: P. falciparum Dd2 (clone B2) asexual blood stage parasites; experiment: P. falciparum Dd2 asexual blood stage SYBR Green-I 72 h proliferation assay (qHTS); format: cell-based, Plasmodium falciparum; conditions: Plasmodium falciparum, DD2, Dd2 parental; Hill fit, averaged from three independent replicates; top concentration 29 µM; read-out: Average AC50 (Log[M]), Dd2 (converted)
[2] = test system: P. falciparum Dd2 Cytb G131S; experiment: SYBR Green ABS proliferation assay, NCGC00374598 selected clone C11; format: cell-based, Plasmodium falciparum; conditions: for AC50: Plasmodium falciparum; for log AC50, mean: cytochrome b mutant line
How it was run: (§1)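 Drug-selected P. falciparum Dd2 clones carrying Cytb mutations, obtained by limiting-dilution cloning, grown in RBCs at 37 °C under 5% CO2/5% O2/90% N2. Growth read by SYBR Green-I fluorescence at 72 h and normalized to controls.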

[3] = test system: P. falciparum Dd2 Cytb V259L; experiment: SYBR Green ABS proliferation assay, NCGC00473217 selected clone F06; format: cell-based, Plasmodium falciparum; design: log AC50, mean: unit: log M; conditions: for AC50: Plasmodium falciparum; for log AC50, mean: cytochrome b mutant line
How it was run: as §1

[4] = test system: P. falciparum Dd2 Cytb A122D; experiment: SYBR Green ABS proliferation assay, NCGC00473217 selected clone F12; format: cell-based, Plasmodium falciparum; design: log AC50, mean: unit: Log[M]; conditions: for AC50: Plasmodium falciparum; for log AC50, mean: cytochrome b mutant line
How it was run: as §1

[5] = test system: P. falciparum Dd2 Cytb F123L; experiment: SYBR Green ABS proliferation assay, NCGC00473217 selected clone G08; format: cell-based, Plasmodium falciparum; design: log AC50, mean: unit: log10(M); conditions: for AC50: Plasmodium falciparum; for log AC50, mean: cytochrome b mutant line
How it was run: as §1

[6] = test system: P. berghei-ANKA-GFP-LucCON liver stage parasites in HepG2-A16-CD81EGFP cells; experiment: P. berghei liver stage Pb-Luc assay, Method 1 (UCSD, 1536-well); format: cell-based, Plasmodium berghei; conditions: Method 1; Decrease = decreasing P. berghei viability with dose, Increase = increasing signal, Inactive = no dose response
[7] = test system: luciferase-expressing P. berghei liver stage parasites in HepG2 cells; experiment: Inhibition of liver-stage development assay (ILSDA), Method 2 (WRAIR, 96-well); format: cell-based, Plasmodium berghei; conditions: for Max Resp (signal direction of the dose response): Method 2, Decrease = decreasing P. berghei viability with dose, Increase = increasing signal, Inactive = no dose response; for AC50: Plasmodium berghei; for Activity direction (Decrease / Inactive): P. berghei liver stage
[8] = test system: Plasmodium falciparum Dd2 asexual blood stage parasites; experiment: microbe, parasite or virus in culture; design: species or system Plasmodium falciparum Dd2 in human erythrocytes; single determination (one 11-point concentration-response curve); conditions: Plasmodium falciparum, DD2, Erythrocyte, 72 h; read-out: AC50
[9] = test system: T1, Plasmodium falciparum Dd2-attB (parental line), asexual blood stages; experiment: microbe, parasite or virus in culture; design: replicate k of 3 (each line is one of three independent assays; the three lines of one compound and parasite line follow each other); conditions: n = 1; for Individual replicates / Log AC50 (M): 72 h; for AC50: Plasmodium falciparum, DD2, 72 h, read-out: Individual replicates / Log AC50 (converted)
T1 construct: Dd2-attB, the isogenic parental line
How it was run: (§2)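 Three independent runs, compound subset only; parental vs ScDHODH line compared by two-sided Student's t-test.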

[10] = test system: T2, Plasmodium falciparum Dd2-attB-ScDHODH (transgenic line expressing yeast DHODH), asexual blood stages; experiment: organism not typed; design: replicate k of 3 (each line is one of three independent assays; the three lines of one compound and parasite line follow each other); conditions: 72 h, n = 1
T2 construct: Dd2-attB-ScDHODH, the transgenic line that expresses yeast DHODH
How it was run: as §2

[11] = DD2, […], averaged from three independent replicates, top concentration 29 µM, read-out: Average AC50 (Log[M]), NCGC00374598 clone C11 (Cytb G131S) (converted)
[12] = DD2, […], averaged from three independent replicates, top concentration 29 µM, read-out: Average AC50 (Log[M]), NCGC00473217 clone F06 (Cytb V259L) (converted)
[13] = DD2, […], averaged from three independent replicates, top concentration 29 µM, read-out: Average AC50 (Log[M]), NCGC00473217 clone F12 (Cytb A122D) (converted)
[14] = DD2, […], averaged from three independent replicates, top concentration 29 µM, read-out: Average AC50 (Log[M]), NCGC00473217 clone G08 (Cytb F123L) (converted)
[15] = DD2, cytochrome b mutant line, second value triple, c6, […], read-out: log AC50, mean (converted)
[16] = DD2, cytochrome b mutant line, third value triple, c9, […], read-out: log AC50, mean (converted)
[17] = DD2, cytochrome b mutant line, fourth value triple, c12, […], read-out: log AC50, mean (converted)
[18] = DD2, cytochrome b mutant line, fifth value triple, c15, […], read-out: log AC50, mean (converted)
[19] = HepG2, Method 2, Hill fit, 50% of maximum activity response, read-out: AC50
[20] = HepG2, Method 2, log10 of molar AC50 from Hill fit, read-out: Log AC50 (converted)
[21] = HepG2, P. berghei liver stage, Method 2, dose response, read-out: AC50
[22] = HepG2, P. berghei liver stage, Method 2, dose response, read-out: Log AC50 (converted)

CCCN1C(CC(C)C)=N[S+](=O)([O-])c2cc(N[S+](=O)([O-])c3ccc4ccccc4c3)ccc21 [NCGC00521141-01]
AC50 [1]: 1.26e-05 M
AC50 [2, 11]: 7.1e-06 M
AC50 [3, 12]: 5.32e-06 M
AC50 [4, 13]: 1.12e-05 M
AC50 [5, 14]: 7.1e-07 M

CCCN1C(CC(C)C)=N[S+](=O)([O-])c2cc(NC(=O)c3ccno3)ccc21 [NCGC00521048-01]
AC50 [1]: 6.1e-06 M
AC50 [2, 11]: 5.02e-06 M
AC50 [3, 12]: 3.17e-06 M
AC50 [4, 13]: 4.66e-06 M
AC50 [5, 14]: 1.89e-07 M

CC(=O)Nc1ccc(CN2CCc3nc(C(C)C)nc(-c4ccc(Cl)cc4)c3CC2)cc1 [NCGC00374598-01]
AC50 [2, 15]: 4.91e-06 M
AC50 [3, 16]: 4.91e-06 M
AC50 [4, 17]: 3.35e-06 M
AC50 [5, 18]: 7.78e-07 M
Max Resp (signal direction of the dose response) [6]: Decrease
Max Resp (signal direction of the dose response) [7]: Decrease
AC50 [7, 19]: 0.501 µM
AC50 [7, 20]: 0.501 µM
AC50 [8]: 2.66 µM
Individual replicates / Log AC50 (M) [9]: -5.6986 Log AC50 (M) and -5.7986 Log AC50 (M)
AC50 [9]: 1.26 µM
Individual replicates / Log AC50 (M) [10]: -5.1486 Log AC50 (M) and -4.9986 Log AC50 (M) and -5.3986 Log AC50 (M)

CCCN1C(CC(C)C)=N[S+](=O)([O-])c2cc(NC(=O)c3cc(F)cc(F)c3)ccc21 [NCGC00523544-01]
AC50 [1]: 5.43e-06 M
AC50 [2, 11]: 5.02e-06 M
AC50 [3, 12]: 7.1e-06 M
AC50 [4, 13]: 9.66e-06 M
AC50 [5, 14]: 1.08e-05 M

CCCN1C(CC(C)C)=N[S+](=O)([O-])c2cc(NC(=O)c3ccccc3)ccc21 [NCGC00510420-02]
AC50 [1]: 1e-06 M
AC50 [2, 11]: 4.23e-07 M
AC50 [3, 12]: 1.12e-06 M
AC50 [4, 13]: 1.06e-06 M
AC50 [5, 14]: 2.12e-08 M

O=[S+]([O-])(c1cccs1)N1CCc2nc(C3CC3)nc(-c3ccc(Cl)cc3)c2CC1 [NCGC00476969-01]
AC50 [2, 15]: 7.78e-06 M
AC50 [3, 16]: 1.19e-05 M
AC50 [4, 17]: 1.38e-05 M
AC50 [5, 18]: 1.23e-05 M
Activity direction (Decrease / Inactive) ([7]; Method 2, dose response): Inactive

O=C(O)C(F)(F)F.Oc1ccc(-c2nc(C3CC3)nc3c2CCN(CC2CCCCC2)CC3)cc1 [NCGC00480361-02]
log AC50, mean ([2]; second value triple, c6, […]): -5.282
log AC50, mean ([3]; third value triple, c9, […]): -5.515
log AC50, mean ([4]; fourth value triple, c12, […]): -5.499
log AC50, mean ([5]; fifth value triple, c15, […]): -6.465
Individual replicates / Log AC50 (M) [9]: -5.2486 Log AC50 (M)
Individual replicates / Log AC50 (M) [10]: -5.0486 Log AC50 (M) and -5.1986 Log AC50 (M)

O=C(O)C(F)(F)F.Oc1ccc(-c2nc(C3CC3)nc3c2CCN(Cc2ccc(F)cc2)CC3)cc1 [NCGC00480352-02]
log AC50, mean ([2]; second value triple, c6, […]): -5.315
log AC50, mean ([3]; third value triple, c9, […]): -5.399
log AC50, mean ([4]; fourth value triple, c12, […]): -5.349
log AC50, mean ([5]; fifth value triple, c15, […]): -5.432
Individual replicates / Log AC50 (M) [9]: -4.9986 Log AC50 (M) and -5.0986 Log AC50 (M) (2×)
Individual replicates / Log AC50 (M) [10]: -5.0486 Log AC50 (M) (2×) and -4.8486 Log AC50 (M)

Oc1ccc(-c2nc(C3CC3)nc3c2CCN(CC2CCCCC2)CC3)cc1 [NCGC00480361-01]
AC50 [2, 15]: 6.43e-06 M
log AC50, mean ([3]; third value triple, c9, […]): -5.075
log AC50, mean ([4]; fourth value triple, c12, […]): -5.009
log AC50, mean ([5]; fifth value triple, c15, […]): -5.309
Activity direction (Decrease / Inactive) ([7]; Method 2, dose response): Inactive
AC50 [8]: 4.73 µM
Individual replicates / Log AC50 (M) [9]: -5.4486 Log AC50 (M) and -5.3986 Log AC50 (M)
AC50 [9]: 4.48 µM
Individual replicates / Log AC50 (M) [10]: -5.2486 Log AC50 (M) and -5.1486 Log AC50 (M)

c1ccc(OCCNc2nc(-c3cccnc3)nc3c2CCNCC3)cc1 [NCGC00443183-01]
AC50 [2, 15]: 6.93e-06 M
AC50 [3, 16]: 5.73e-06 M
AC50 [4, 17]: 7.21e-06 M
AC50 [5, 18]: 5.11e-06 M
Activity direction (Decrease / Inactive) ([7]; Method 2, dose response): Inactive

O=c1[nH]c(N2CCOCC2)nc2c1CCN(Cc1cc(F)c(F)cc1F)CC2 [NCGC00440659-01]
AC50 [2, 15]: 1.14e-05 M
AC50 [3, 16]: 1.81e-05 M
AC50 [4, 17]: 1.74e-05 M
AC50 [5, 18]: 4.91e-06 M
Activity direction (Decrease / Inactive) ([7]; Method 2, dose response): Inactive
AC50 [8]: 15 µM

CCc1nc2c(c(-c3ccc(O)cc3)n1)CCN(Cc1ccc(OC(F)(F)F)cc1)CC2 [NCGC00480301-01]
AC50 [2, 15]: 5.11e-06 M
AC50 [3, 16]: 5.73e-06 M
AC50 [4, 17]: 6.18e-06 M
AC50 [5, 18]: 7.78e-06 M
Activity direction (Decrease / Inactive) ([7]; Method 2, dose response): Inactive
AC50 [8]: 1.5 µM

CCCN1C(c2ccccc2)=NS(=O)(=O)c2cc(NC(=O)c3cccs3)ccc21 [NCGC00532332-01]
AC50 [2, 15]: 8.61e-07 M
AC50 [3, 16]: 4.32e-06 M
AC50 [4, 17]: 1.53e-06 M
AC50 [5, 18]: 2e-06 M
Activity direction (Decrease / Inactive) ([7]; Method 2, dose response): Decrease
AC50 [7, 21]: 0.035 µM
AC50 [7, 22]: 0.0355 µM

CCCN1C(c2ccccc2)=NS(=O)(=O)c2cc(NC(=O)c3ccc(F)cc3)ccc21 [NCGC00532331-01]
AC50 [2, 15]: 7.1e-07 M
AC50 [3, 16]: 2.33e-06 M
AC50 [4, 17]: 1.85e-06 M
AC50 [5, 18]: 3.3e-06 M
Activity direction (Decrease / Inactive) ([7]; Method 2, dose response): Decrease
AC50 [7, 21]: 17.8 µM
AC50 [7, 22]: 17.8 µM

CC(C)c1nc2c(c(-c3ccc(O)cc3)n1)CCN(Cc1cccc3ccccc13)CC2 [NCGC00480323-01]
AC50 [2, 15]: 4.06e-06 M
AC50 [3, 16]: 4.55e-06 M
AC50 [4, 17]: 4.73e-06 M
AC50 [5, 18]: 4.22e-06 M
Activity direction (Decrease / Inactive) ([7]; Method 2, dose response): Inactive

COc1ccc(-c2nc(C3CC3)nc3c2CCN(Cc2cc(C)on2)CC3)cc1 [NCGC00374666-01]
AC50 [2, 15]: 8.09e-06 M
AC50 [3, 16]: 8.09e-06 M
AC50 [4, 17]: 6.93e-06 M
AC50 [5, 18]: 5.31e-06 M
Max Resp (signal direction of the dose response) [7]: Decrease
AC50 [7, 19]: 0.794 µM
AC50 [7, 20]: 0.794 µM
